Results on nine compounds are retold here after paper PMC7397249, “Properly Substituted Cyclic Bis-(2-bromobenzylidene) Compounds Behaved as Dual p300/CARM1 Inhibitors and Induced Apoptosis in Cancer Cells” (Molecules, 2020).

The target in one assay is T1, SIRT1 (Homo sapiens, UniProt Q96EB6).
T1 construct: host or cells: E. coli
Kind of assay: Modified Fluor de Lys fluorescence-based assay, SIRT1. Format: biochemical. To be noted: from 200 μM; p53 379-382 AMC substrate, NAD+. The protocol: (§1) The newly synthesized compounds 4a–n were tested to determine their effects against acetylation and methylation epigenetic targets. First, 4a–n were screened in vitro against the two HAT enzymes p300 and PCAF. […] To determine the activity against SIRT1 and -2, 4a–n were tested starting from 200 μM solutions using a modified Fluor de Lys fluorescence-based assay with amino acids 379–382 (Arg-His-Lys-Lys(Ac)) of human p53 conjugated with aminomethylcoumarin as substrate and NAD^+ as co-substrate. […] Furthermore, 4a–n were tested against a human five-membered Polycomb repressive complex 2 (PRC2) containing EZH2, embryonic ectoderm development (EED), suppressor of zeste 12 (SUZ12), RbAp48, and adipocyte enhancer-binding protein (AEBP2), to assess their capability to inhibit the catalytic unit EZH2.
The SIRT inhibition assay was performed using human recombinant SIRT1 and SIRT2 produced in E. coli. Compounds were tested using a modified Fluor de Lys fluorescence-based assay kit based on the method described in the BioMol product sheet (AK-555, AK-556, Milan, Italy). […] The second stage is initiated by the addition of the Developer II (KI176), including nicotinamide (NAM), nicotinamide that stops the SIRT1/2 activity, and the fluorescent signal is produced. The fluorescence was measured on a fluorometric reader (Infinite 200 TECAN, Männedorf, Switzerland) with excitation set at 360 nm and emission detection set at 460 nm.

The next assay has as its target PRC2/EZH2 (Homo sapiens, UniProt Q15910). Put plainly: EZH2/PRC2 assay (core histone, 3H-SAM). To be noted: 10-dose, duplicate, from 400 μM. Format: biochemical. The protocol:
as §1
The EZH2 substrate (0.05 mg/mL core histone) was added in the freshly prepared reaction buffer (50 mM Tris-HCl (pH 8.0), 50 mM NaCl, 1 mM EDTA, 1 mM DTT, 1 mM PMSF, 1% DMSO). The PRC2 complex (complex of human EZH2, human EED, human SUZ12, human AEBP2, and human RbAp48) was delivered into the substrate solution and the mixture was mixed gently. Afterwards, the tested compounds dissolved in DMSO were delivered into the enzyme/substrate reaction mixture by using Acoustic Technology (Echo 550, LabCyte Inc. Sunnyvale, CA, USA) in nanoliter range, and ^3H-SAM was added into the reaction mixture to initiate the reaction. The reaction mixture was incubated for 1 h at 30 °C and then it was delivered to filter-paper for detection. The data were analyzed using Excel and GraphPad Prism software for IC50 curve fits. The experiments were performed in duplicate.

The next assay concerns the target T2, CARM1 (Homo sapiens, UniProt Q86X55).
T2 sequence (Q86X55 1-608): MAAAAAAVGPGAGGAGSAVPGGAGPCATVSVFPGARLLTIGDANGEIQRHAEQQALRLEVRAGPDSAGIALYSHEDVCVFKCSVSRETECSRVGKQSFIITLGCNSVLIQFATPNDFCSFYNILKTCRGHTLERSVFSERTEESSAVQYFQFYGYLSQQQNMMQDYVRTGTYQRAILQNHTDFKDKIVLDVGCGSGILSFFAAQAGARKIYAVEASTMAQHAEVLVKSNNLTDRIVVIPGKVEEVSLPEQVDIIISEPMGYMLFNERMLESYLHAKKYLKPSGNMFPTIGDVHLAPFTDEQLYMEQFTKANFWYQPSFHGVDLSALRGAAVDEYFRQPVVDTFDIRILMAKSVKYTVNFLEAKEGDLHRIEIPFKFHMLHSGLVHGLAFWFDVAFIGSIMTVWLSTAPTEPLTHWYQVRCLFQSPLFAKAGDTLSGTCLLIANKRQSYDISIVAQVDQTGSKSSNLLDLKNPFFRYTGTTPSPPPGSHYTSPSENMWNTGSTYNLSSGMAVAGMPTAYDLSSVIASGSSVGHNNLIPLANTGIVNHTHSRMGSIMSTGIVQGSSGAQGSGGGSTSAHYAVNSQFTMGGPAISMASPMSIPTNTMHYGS
Kind of assay: CARM1 assay (histone H3, 3H-SAM). Format: biochemical. The protocol: Histone H3 (5 μM) was added in freshly prepared reaction buffer (50 mM Tris-HCl (pH 8.5), 5 mM MgCl2, 50 mM NaCl, 0.01% Brij35, 1 mM DTT, 1% DMSO). CARM1 was delivered into the substrate solution and the mixture was mixed gently. Afterwards, the tested compounds dissolved in DMSO were delivered into the enzyme/substrate reaction mixture by using Acoustic Technology (Echo 550, LabCyte Inc. Sunnyvale, CA) in nanoliter range, and 1 µM ^3H-SAM was also added into the reaction mixture to initiate the reaction. The reaction mixture was incubated for 1 h at 30 °C and then it was delivered to filter-paper for detection. The data were analyzed using Excel and GraphPad Prism software for IC50 curve fits. The experiments were performed in triplicate.

In a further assay the test system is NB4 cells. Kind of assay: Cell cycle and apoptosis (sub-G1) analysis by FACS in NB4 cells. Format: cell-based, human. To be noted: 5 μM, 30 h. Here is the method: (§2) Compounds 4a–n were tested at 5 μM for 30 h in NB4 […] and U937 AML cells among hematological cancers, and in MCF-7 breast cancer and SH-SY5Y neuroblastoma cells among solid cancers, to determine their effects in cell cycle and apoptosis induction.
(§3) In the same cell lines, the induction of apoptosis has been evaluated through the percentage of the sub-G1 peaks.
(§4) For colorimetric exclusion, the cells (2 × 10^5 cells/mL) were plated in multiwells in triplicate. After stimulations at different times and concentrations, cells were diluted in the ratio 1:1 in Trypan Blue (Sigma) and counted with an optical microscope. For cell cycle analyses, cells were plated (2 × 10^5 cells/mL) and were harvested, centrifuged at 1200 rpm for 5 min and resuspended in 500 μL of a hypotonic solution containing 1× PBS, Sodium Citrate 0.1%, 0.1% NP-40, RNAase A and […] Propidium Iodide (PI). After 30 min at room temperature (RT) in the dark, samples were acquired by FACS-Calibur (BD Bioscences, San Jose, CA, USA) using CellQuest software (BD Biosciences). The percentage in different phases of the cell cycle was determined by ModFit LT V3 software (Verity). All experiments were performed in triplicate. Cell death was measured as percentage of cells in sub-G1 phase as in [30].
On the technique in general: In flow cytometry, cells or beads pass a laser one at a time.

The subject of the next assay is U937 cells. Kind of assay: Cell cycle and apoptosis (sub-G1) analysis by FACS in U937 cells. Format: cell-based, human. The note with it: 5 μM, 30 h. Here is the method: as §2, §3, §4

SMILES strings stand for the structures. Where only a bound is given, the exact number is not on record here.

T1 sequence (Q96EB6 whole entry): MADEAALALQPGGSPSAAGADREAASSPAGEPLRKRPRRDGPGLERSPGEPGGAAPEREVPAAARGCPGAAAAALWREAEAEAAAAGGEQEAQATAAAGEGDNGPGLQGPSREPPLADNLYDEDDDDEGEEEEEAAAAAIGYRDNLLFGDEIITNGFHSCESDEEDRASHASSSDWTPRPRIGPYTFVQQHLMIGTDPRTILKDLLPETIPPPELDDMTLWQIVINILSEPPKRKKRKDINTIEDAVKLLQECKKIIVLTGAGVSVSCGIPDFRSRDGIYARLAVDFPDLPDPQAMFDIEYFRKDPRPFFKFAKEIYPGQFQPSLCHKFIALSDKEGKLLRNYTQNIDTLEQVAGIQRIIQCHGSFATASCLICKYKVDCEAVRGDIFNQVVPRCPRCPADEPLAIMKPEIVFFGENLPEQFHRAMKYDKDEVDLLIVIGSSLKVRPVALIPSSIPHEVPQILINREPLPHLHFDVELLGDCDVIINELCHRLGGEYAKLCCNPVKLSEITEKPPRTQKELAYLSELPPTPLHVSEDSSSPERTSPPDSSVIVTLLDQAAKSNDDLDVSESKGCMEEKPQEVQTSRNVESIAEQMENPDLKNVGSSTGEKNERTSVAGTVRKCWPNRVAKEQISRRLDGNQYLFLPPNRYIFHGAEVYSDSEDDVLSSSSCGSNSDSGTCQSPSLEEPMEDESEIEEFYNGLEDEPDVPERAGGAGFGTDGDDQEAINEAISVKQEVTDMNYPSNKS
Sequence of PRC2/EZH2 (Q15022 whole entry): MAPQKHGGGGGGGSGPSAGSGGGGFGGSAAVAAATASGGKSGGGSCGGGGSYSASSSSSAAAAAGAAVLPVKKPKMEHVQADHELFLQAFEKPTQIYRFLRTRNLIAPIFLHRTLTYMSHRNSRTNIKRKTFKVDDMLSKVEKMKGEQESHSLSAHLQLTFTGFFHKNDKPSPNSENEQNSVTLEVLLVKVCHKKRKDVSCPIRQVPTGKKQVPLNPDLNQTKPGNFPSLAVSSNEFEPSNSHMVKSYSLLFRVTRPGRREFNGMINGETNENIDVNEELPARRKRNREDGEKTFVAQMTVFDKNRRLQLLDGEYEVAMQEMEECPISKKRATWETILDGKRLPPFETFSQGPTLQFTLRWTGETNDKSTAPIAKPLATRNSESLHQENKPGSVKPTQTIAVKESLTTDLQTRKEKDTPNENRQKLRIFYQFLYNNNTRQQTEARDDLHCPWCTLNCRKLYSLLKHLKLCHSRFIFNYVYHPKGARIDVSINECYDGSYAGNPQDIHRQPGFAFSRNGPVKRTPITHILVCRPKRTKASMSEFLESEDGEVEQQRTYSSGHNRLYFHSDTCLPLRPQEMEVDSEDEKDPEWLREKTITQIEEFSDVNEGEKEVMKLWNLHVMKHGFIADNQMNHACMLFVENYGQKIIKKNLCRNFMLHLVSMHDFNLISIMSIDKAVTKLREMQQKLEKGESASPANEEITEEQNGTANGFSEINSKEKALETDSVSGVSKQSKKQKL
Sequence of PRC2/EZH2 (Q09028 whole entry, further chain): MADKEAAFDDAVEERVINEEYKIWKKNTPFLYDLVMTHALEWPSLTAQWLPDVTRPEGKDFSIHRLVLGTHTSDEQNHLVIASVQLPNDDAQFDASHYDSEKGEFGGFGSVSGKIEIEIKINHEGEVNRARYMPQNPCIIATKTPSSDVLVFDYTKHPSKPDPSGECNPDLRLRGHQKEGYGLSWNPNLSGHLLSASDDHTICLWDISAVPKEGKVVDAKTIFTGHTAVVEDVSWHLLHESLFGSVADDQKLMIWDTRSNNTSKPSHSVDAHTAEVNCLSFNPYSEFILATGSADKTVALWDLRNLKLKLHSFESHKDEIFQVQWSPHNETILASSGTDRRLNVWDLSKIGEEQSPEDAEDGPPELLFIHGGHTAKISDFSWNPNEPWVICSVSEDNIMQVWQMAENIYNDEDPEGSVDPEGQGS
Sequence of PRC2/EZH2 (Q6ZN18 whole entry, further chain): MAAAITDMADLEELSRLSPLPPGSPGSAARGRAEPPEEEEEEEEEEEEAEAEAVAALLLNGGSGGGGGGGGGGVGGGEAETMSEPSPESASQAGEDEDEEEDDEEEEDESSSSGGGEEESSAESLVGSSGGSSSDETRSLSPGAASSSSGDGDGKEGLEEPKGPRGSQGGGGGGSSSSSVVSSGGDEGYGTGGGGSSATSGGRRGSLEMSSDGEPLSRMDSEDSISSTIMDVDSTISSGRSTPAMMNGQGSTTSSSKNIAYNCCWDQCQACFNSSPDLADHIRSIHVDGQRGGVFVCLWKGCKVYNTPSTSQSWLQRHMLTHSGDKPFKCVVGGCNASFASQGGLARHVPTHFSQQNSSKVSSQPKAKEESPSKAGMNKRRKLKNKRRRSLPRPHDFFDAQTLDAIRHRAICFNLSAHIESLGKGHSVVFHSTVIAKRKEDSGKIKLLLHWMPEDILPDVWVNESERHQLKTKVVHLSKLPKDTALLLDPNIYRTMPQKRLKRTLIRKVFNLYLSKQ
Sequence of PRC2/EZH2 (Q15910 whole entry): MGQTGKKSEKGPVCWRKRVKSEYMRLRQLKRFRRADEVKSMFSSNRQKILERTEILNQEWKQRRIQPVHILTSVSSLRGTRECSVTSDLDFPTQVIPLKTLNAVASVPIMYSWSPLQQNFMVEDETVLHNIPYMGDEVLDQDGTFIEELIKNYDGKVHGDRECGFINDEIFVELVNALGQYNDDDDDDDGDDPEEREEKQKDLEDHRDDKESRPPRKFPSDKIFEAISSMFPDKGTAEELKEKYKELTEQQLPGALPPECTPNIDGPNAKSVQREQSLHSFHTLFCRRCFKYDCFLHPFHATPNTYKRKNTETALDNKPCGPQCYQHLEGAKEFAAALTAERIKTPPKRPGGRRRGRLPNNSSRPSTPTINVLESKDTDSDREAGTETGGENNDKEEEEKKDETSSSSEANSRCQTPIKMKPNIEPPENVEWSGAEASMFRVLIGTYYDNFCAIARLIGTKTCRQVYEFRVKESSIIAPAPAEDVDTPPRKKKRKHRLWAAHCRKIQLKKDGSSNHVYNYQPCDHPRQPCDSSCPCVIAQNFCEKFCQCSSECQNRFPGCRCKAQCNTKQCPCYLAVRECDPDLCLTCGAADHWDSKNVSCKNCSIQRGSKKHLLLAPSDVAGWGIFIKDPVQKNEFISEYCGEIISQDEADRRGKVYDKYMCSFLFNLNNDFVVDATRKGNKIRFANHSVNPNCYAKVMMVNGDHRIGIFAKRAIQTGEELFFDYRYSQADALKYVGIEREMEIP
Sequence of PRC2/EZH2 (O75530 whole entry, further chain): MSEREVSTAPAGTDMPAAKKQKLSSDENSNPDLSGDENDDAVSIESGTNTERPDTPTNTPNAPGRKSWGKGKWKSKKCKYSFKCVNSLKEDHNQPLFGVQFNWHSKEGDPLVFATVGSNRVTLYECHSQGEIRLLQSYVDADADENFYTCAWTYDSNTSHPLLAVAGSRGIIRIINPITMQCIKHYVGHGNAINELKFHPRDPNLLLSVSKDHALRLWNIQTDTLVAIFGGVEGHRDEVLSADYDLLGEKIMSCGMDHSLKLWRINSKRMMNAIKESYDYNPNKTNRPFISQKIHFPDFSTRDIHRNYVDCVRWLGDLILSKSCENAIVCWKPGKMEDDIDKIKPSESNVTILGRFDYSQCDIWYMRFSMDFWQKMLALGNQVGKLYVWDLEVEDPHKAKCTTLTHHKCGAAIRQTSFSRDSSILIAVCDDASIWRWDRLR

As a reminder, the IC50 is the concentration at which inhibition is half-maximal. A high value points to weaker potency. In the case of `O=C1/C(=C/c2ccccc2Br)CN(CCCC(=O)c2ccccc2)C/C1=C\c1ccccc1Br` [Compound 4j, 3,5-Bis((E)-2-bromobenzylidene)-1-(4-oxo-4-phenylbutyl)piperidin-4-one], the results for the IC50 at SIRT1, against PRC2/EZH2 and against CARM1 were > 200 µM, 68.5 ± 6.2 µM and 4.8 ± 1.72 µM, respectively.
As to `O=C1/C(=C/c2ccccc2Br)CN(CC(=O)c2ccccc2)C/C1=C\c1ccccc1Br` [Compound 4h, 3,5-Bis((E)-2-bromobenzylidene)-1-(2-oxo-2-phenylethyl)piperidin-4-one], the IC50 was > 200 µM against SIRT1, 46 ± 8.1 µM against PRC2/EZH2 and 5.52 ± 0.78 µM at CARM1. In addition, in the assay on NB4 cells, the “induction of apoptosis, % sub-G1 peaks” value lay in the range of 30 to 40%.
In the case of `O=C1/C(=C/c2ccccc2Br)CN(C(=O)C=Cc2ccccc2)C/C1=C\c1ccccc1Br` [Compound 4n, 3,5-Bis((E)-2-bromobenzylidene)-1-cinnamoylpiperidin-4-one], the IC50 against SIRT1 was > 200 µM; at PRC2/EZH2 it was 13.9 ± 1.8 µM; on CARM1, 7.14 ± 2.54 µM. Further, the “effect on cell cycle phases” value with U937 cells is listed as “arrested the cell cycle at the G1/S phase”.
For `O=C1/C(=C/c2ccccc2Br)CN(C(=O)Cc2ccccc2)C/C1=C\c1ccccc1Br` [Compound 4l, 3,5-Bis((E)-2-bromobenzylidene)-1-(2-phenylacetyl)piperidin-4-one], the IC50 against SIRT1 was > 200 µM; against PRC2/EZH2, 15.2 ± 2.2 µM; against CARM1, 0.43 ± 0.12 µM. Also, the “induction of apoptosis, % sub-G1 peaks” value in the assay on NB4 cells was determined as 67%. In the assay on U937 cells, the “effect on cell cycle phases” value is on record as “block in G2/M phase”.
For the compound `O=C1/C(=C/c2ccccc2Br)CN(CCCc2ccccc2)C/C1=C\c1ccccc1Br` [Compound 4g, 3,5-Bis((E)-2-bromobenzylidene)-1-(3-phenylpropyl)piperidin-4-one], the IC50 at SIRT1 is > 200 µM; against CARM1, 12.6 ± 2.6 µM. For the same compound, the “effect on cell cycle phases” value in the assay with U937 cells is listed as “arrested the cell cycle at the G1/S phase”.
As for `O=C1/C(=C/c2ccccc2Br)CN(CCc2ccccc2)C/C1=C\c1ccccc1Br` [Compound 4f, 3,5-Bis((E)-2-bromobenzylidene)-1-phenethylpiperidin-4-one], the IC50 on SIRT1 is > 200 µM; at CARM1 it was 18.5 ± 0.9 µM. In addition, the “effect on cell cycle phases” value with U937 cells was “block in G2/M phase”.
Consider `O=C1/C(=C/c2ccccc2Br)CN(C(=O)CCc2ccccc2)C/C1=C\c1ccccc1Br` [Compound 4m, 3,5-Bis((E)-2-bromobenzylidene)-1-(3-phenylpropanoyl)piperidin-4-one], for which the values for the IC50 at SIRT1, against PRC2/EZH2 and on CARM1 were > 200 µM, 11.3 ± 0.08 µM and 0.79 ± 0.06 µM, respectively. Moreover, the “induction of apoptosis, % sub-G1 peaks” value with NB4 cells worked out at 56%. Moreover, the “effect on cell cycle phases” value with U937 cells is reported as “block in G2/M phase”.
As to `O=C1/C(=C/c2ccccc2Br)CN(Cc2ccccc2)C/C1=C\c1ccccc1Br` [Compound 4e, 1-benzyl-3,5-bis((E)-2-bromobenzylidene)piperidin-4-one], the IC50 against SIRT1 was > 200 µM; on PRC2/EZH2 it was 44.2 ± 0.2 µM; at CARM1, 6.5 ± 0.86 µM. Besides, in the assay with NB4 cells, the “induction of apoptosis, % sub-G1 peaks” value is reported as 30 to 40%.
The matching figures for `O=C1/C(=C/c2ccccc2Br)CN(C(=O)c2ccccc2)C/C1=C\c1ccccc1Br` [Compound 4k, 1-Benzoyl-3,5-bis((E)-2-bromobenzylidene)piperidin-4-one]: > 200 µM, 40.7 ± 15.3 µM, 1.33 ± 0.14 µM and 30 to 40%.
